Assay results: patent publication US20230183193A1, “4-DIFLUOROMETHYL BENZOYL AMIDES WITH HERBICIDAL ACTION” (BAYER CROPSCIENCE AKTIENGESELLSCHAFT, priority 2017, published 2023)

Key:
Setaria viridis [1] = assay: Post-emergence herbicidal action, SETVI; format: in vivo; details: for herbicidal activity SETVI: Table C
Summary of the method: (§1)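 Post-emergence spray; one-leaf stage (2–3 wk after sowing), sandy loam, greenhouse. WP/EC in water, 600 to […], +0.2% wetting agent. Visual % damage vs untreated at ~3 wk; 100% = plants dead.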

Alopecurus myosuroides [2] = assay: Post-emergence herbicidal action, ALOMY; format: in vivo; details: for herbicidal activity ALOMY: Table C
Summary of the method: as §1

Cyperus serotinus = assay: Pre-emergence herbicidal action, CYPES; format: in vivo; details: for herbicidal activity CYPES: dosage 320 g/ha, scored visually after 3 weeks vs untreated controls
Summary of the method: (§2)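 Percent herbicidal activity rated by eye 3 weeks after pre-emergence soil-surface application, compared with untreated pots. Seeds sat under sandy loam; sprays carried 0.2% wetting agent.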

Setaria viridis [3] = assay: Pre-emergence herbicidal action, SETVI; format: in vivo; details: for herbicidal activity SETVI: dosage 320 g/ha, scored visually after 3 weeks vs untreated controls
Summary of the method: as §2

Abutilon theophrasti [4] = assay: Post-emergence herbicidal action, ABUTH; format: in vivo; details: 80 g/ha, Table D
Summary of the method: as §1

ECHCG [5] = assay: Post-emergence herbicidal action, ECHCG; format: in vivo; details: 80 g/ha, Table C
Summary of the method: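 Weed and crop plants grown in sandy loam in the greenhouse, treated at the one-leaf stage 2–3 weeks after sowing. Damage scored visually after about 3 weeks vs untreated controls (0% = control, 100% = dead).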

Stellaria media [6] = assay: Pre-emergence herbicidal action, STEME; format: in vivo; details: dosage 320 g/ha, scored visually after 3 weeks vs untreated controls
Summary of the method: as §2

Polygonum convolvulus = assay: Pre-emergence herbicidal action, POLCO; format: in vivo; details: Table K
Text: 1. Pre-Emergence Herbicidal Action Against Harmful Plants Seeds of monocotyledonous and dicotyledonous weed plants and crop plants are laid out in sandy loam soil in wood-fiber pots and covered with soil. The compounds of the invention, formulated in the form of wettable powders (WP) or as emulsion concentrates (EC), are then applied to the surface of the covering soil in the form of an aqueous suspension or emulsion at a water application rate equating to […], with addition of 0.2% wetting agent. After the treatment, the pots are placed in a greenhouse and kept under good growth conditions for the trial plants. The damage to the test plants is scored visually after a test period of 3 weeks by comparison with untreated controls (herbicidal activity in percent (%): 100% activity=the plants have died, 0% activity=like control plants).
For comparison, the herbicidal activity of numerous compounds according to the invention was tested with the structurally closest compounds known from the documents WO 2011/035874, WO 2012/028579 and WO 2012/126932, by the pre- and post-emergence method.

Pharbitis purpureum = assay: Post-emergence herbicidal action, PHBPU; format: in vivo; details: 80 g/ha, Table D
Summary of the method: as §1

Viola tricolor [7] = assay: Post-emergence herbicidal action, VIOTR; format: in vivo; details: for herbicidal activity VIOTR: Table D
Summary of the method: as §1

Avena fatua [8] = assay: Pre-emergence herbicidal action, AVEFA; format: in vivo; details: for herbicidal activity AVEFA: dosage 320 g/ha, scored visually after 3 weeks vs untreated controls
Summary of the method: as §2

ECHCG [9] = assay: Pre-emergence herbicidal action, ECHCG; format: in vivo, Echinochloa crus-galli
Alopecurus myosuroides [10] = assay: Pre-emergence herbicidal action, ALOMY; format: in vivo; details: for herbicidal activity ALOMY: dosage 320 g/ha, scored visually after 3 weeks vs untreated controls
Summary of the method: as §2

Stellaria media [11] = assay: Post-emergence herbicidal action, STEME; format: in vivo; details: for Herbicidal activity STEME: Table D
Summary of the method: as §1

Avena fatua [12] = assay: Post-emergence herbicidal action, AVEFA; format: in vivo; details: for herbicidal activity AVEFA: Table C
Summary of the method: as §1

Matricaria inodora = assay: Pre-emergence herbicidal action, MATIN; format: in vivo; details: for Herbicidal efficacy against MATIN: Table K; for herbicidal activity MATIN: scored visually after 3 weeks vs untreated controls
Summary of the method: as §2

Amaranthus retroflexus [13] = assay: Pre-emergence herbicidal action, AMARE; format: in vivo; details: dosage 320 g/ha, scored visually after 3 weeks vs untreated controls
Summary of the method: as §2

Viola tricolor [14] = assay: Pre-emergence herbicidal action, VIOTR; format: in vivo; details: for Herbicidal efficacy against VIOTR: Table K; for herbicidal activity VIOTR: scored visually after 3 weeks vs untreated controls
Summary of the method: as §2

Abutilon theophrasti [15] = assay: Pre-emergence herbicidal action, ABUTH; format: in vivo; details: for Herbicidal efficacy against ABUTH: Table K; for herbicidal activity ABUTH: scored visually after 3 weeks vs untreated controls
Summary of the method: as §2

Amaranthus retroflexus [16] = assay: Post-emergence herbicidal action, AMARE; format: in vivo; details: 80 g/ha, Table D
Summary of the method: as §1

Cc1c(C(=O)Nc2nnnn2C)ccc(C(F)F)c1S(C)(=O)=O [Example 1-3]
Herbicidal efficacy against SETVI (Setaria viridis [1]; 5 g/ha): 90 | Herbicidal efficacy against SETVI (Setaria viridis [1]; 80 g/ha): 90 | herbicidal activity SETVI (Setaria viridis [1]; 80 g/ha): 90% | Herbicidal efficacy against ALOMY (Alopecurus myosuroides [2]; 5 g/ha): 60 | Herbicidal efficacy against ALOMY (Alopecurus myosuroides [2]; 80 g/ha): 90 | herbicidal activity ALOMY (Alopecurus myosuroides [2]; 80 g/ha): 90% | Herbicidal efficacy against CYPES (Cyperus serotinus; 20 g/ha): 30 | Herbicidal efficacy against CYPES (Cyperus serotinus; 80 g/ha): 90 | Herbicidal efficacy against CYPES (Cyperus serotinus; 320 g/ha): 90 | herbicidal activity CYPES (Cyperus serotinus): 90% | Herbicidal efficacy against SETVI (Setaria viridis [3]; 20 g/ha): 70 | Herbicidal efficacy against SETVI (Setaria viridis [3]; 80 g/ha): 100 | Herbicidal efficacy against SETVI (Setaria viridis [3]; 320 g/ha): 100 | herbicidal activity SETVI (Setaria viridis [3]): 100% | herbicidal activity ABUTH (Abutilon theophrasti [4]): 80% | Herbicidal activity ECHCG (ECHCG [5]): 90% | Herbicidal activity STEME (Stellaria media [6]): 100% | Herbicidal efficacy against POLCO (Polygonum convolvulus; dosage 20 g/ha): 30 | Herbicidal efficacy against POLCO (Polygonum convolvulus; dosage 80 g/ha): 90 | Herbicidal efficacy against POLCO (Polygonum convolvulus; dosage 320 g/ha): 90 | Herbicidal activity PHBPU (Pharbitis purpureum): 100% | Herbicidal efficacy against VIOTR (Viola tricolor [7]; 5 g/ha): 100 | Herbicidal efficacy against VIOTR (Viola tricolor [7]; 80 g/ha): 100 | herbicidal activity VIOTR (Viola tricolor [7]; 80 g/ha): 100% | Herbicidal efficacy against AVEFA (Avena fatua [8]; 20 g/ha): 80 | Herbicidal efficacy against AVEFA (Avena fatua [8]; 80 g/ha): 100 | Herbicidal efficacy against AVEFA (Avena fatua [8]; 320 g/ha): 100 | herbicidal activity AVEFA (Avena fatua [8]): 100% | Herbicidal efficacy against ECHCG (ECHCG [9]; 20 g/ha): 90 | Herbicidal efficacy against ECHCG (ECHCG [9]; 80 g/ha): 100 | Herbicidal efficacy against ECHCG (ECHCG [9]; 320 g/ha): 100 | Herbicidal efficacy against ALOMY (Alopecurus myosuroides [10]; 20 g/ha): 50 | Herbicidal efficacy against ALOMY (Alopecurus myosuroides [10]; 80 g/ha): 90 | Herbicidal efficacy against ALOMY (Alopecurus myosuroides [10]; 320 g/ha): 100 | herbicidal activity ALOMY (Alopecurus myosuroides [10]): 100% | Herbicidal efficacy against STEME (Stellaria media [11]; 5 g/ha): 90 | Herbicidal efficacy against STEME (Stellaria media [11]; 80 g/ha): 100 | Herbicidal activity STEME (Stellaria media [11]; 80 g/ha): 100% | Herbicidal efficacy against AVEFA (Avena fatua [12]; 5 g/ha): 70 | Herbicidal efficacy against AVEFA (Avena fatua [12]; 80 g/ha): 100 | herbicidal activity AVEFA (Avena fatua [12]; 80 g/ha): 100% | Herbicidal efficacy against MATIN (Matricaria inodora; dosage 20 g/ha): 80 | Herbicidal efficacy against MATIN (Matricaria inodora; dosage 80 g/ha): 100 | Herbicidal efficacy against MATIN (Matricaria inodora; dosage 320 g/ha): 100 | herbicidal activity MATIN (Matricaria inodora; dosage 320 g/ha): 100% | herbicidal activity AMARE (Amaranthus retroflexus [13]): 100% | Herbicidal efficacy against VIOTR (Viola tricolor [14]; dosage 20 g/ha): 100 | Herbicidal efficacy against VIOTR (Viola tricolor [14]; dosage 80 g/ha): 100 | Herbicidal efficacy against VIOTR (Viola tricolor [14]; dosage 320 g/ha): 100 | herbicidal activity VIOTR (Viola tricolor [14]; dosage 320 g/ha): 100% | Herbicidal efficacy against ABUTH (Abutilon theophrasti [15]; dosage 20 g/ha): 100 | Herbicidal efficacy against ABUTH (Abutilon theophrasti [15]; dosage 80 g/ha): 100 | Herbicidal efficacy against ABUTH (Abutilon theophrasti [15]; dosage 320 g/ha): 100 | herbicidal activity ABUTH (Abutilon theophrasti [15]; dosage 320 g/ha): 100%

CCn1nnnc1NC(=O)c1ccc(C(F)F)c(S(C)(=O)=O)c1Br [Example 2-63]
herbicidal activity SETVI (Setaria viridis [1]; 80 g/ha): 100% | herbicidal activity ALOMY (Alopecurus myosuroides [2]; 80 g/ha): 100% | herbicidal activity AMARE (Amaranthus retroflexus [16]): 100% | herbicidal activity CYPES (Cyperus serotinus): 90% | herbicidal activity SETVI (Setaria viridis [3]): 100% | herbicidal activity ABUTH (Abutilon theophrasti [4]): 100% | Herbicidal activity ECHCG (ECHCG [5]): 100% | Herbicidal activity STEME (Stellaria media [6]): 100% | Herbicidal activity PHBPU (Pharbitis purpureum): 100% | herbicidal activity VIOTR (Viola tricolor [7]; 80 g/ha): 100% | herbicidal activity AVEFA (Avena fatua [8]): 100% | herbicidal activity ALOMY (Alopecurus myosuroides [10]): 100% | Herbicidal activity STEME (Stellaria media [11]; 80 g/ha): 100% | herbicidal activity AVEFA (Avena fatua [12]; 80 g/ha): 100% | herbicidal activity MATIN (Matricaria inodora; dosage 320 g/ha): 100% | herbicidal activity AMARE (Amaranthus retroflexus [13]): 100% | herbicidal activity VIOTR (Viola tricolor [14]; dosage 320 g/ha): 100% | herbicidal activity ABUTH (Abutilon theophrasti [15]; dosage 320 g/ha): 100%

CSc1c(C(F)F)ccc(C(=O)Nc2nnnn2C)c1F [Example 1-37]
herbicidal activity SETVI (Setaria viridis [1]; 80 g/ha): 100% | herbicidal activity ALOMY (Alopecurus myosuroides [2]; 80 g/ha): 80% | herbicidal activity AMARE (Amaranthus retroflexus [16]): 100% | herbicidal activity CYPES (Cyperus serotinus): 100% | herbicidal activity SETVI (Setaria viridis [3]): 100% | herbicidal activity ABUTH (Abutilon theophrasti [4]): 90% | Herbicidal activity ECHCG (ECHCG [5]): 100% | Herbicidal activity STEME (Stellaria media [6]): 100% | Herbicidal activity PHBPU (Pharbitis purpureum): 90% | herbicidal activity VIOTR (Viola tricolor [7]; 80 g/ha): 100% | herbicidal activity AVEFA (Avena fatua [8]): 100% | herbicidal activity ALOMY (Alopecurus myosuroides [10]): 100% | Herbicidal activity STEME (Stellaria media [11]; 80 g/ha): 100% | herbicidal activity AVEFA (Avena fatua [12]; 80 g/ha): 100% | herbicidal activity MATIN (Matricaria inodora; dosage 320 g/ha): 100% | herbicidal activity AMARE (Amaranthus retroflexus [13]): 100% | herbicidal activity VIOTR (Viola tricolor [14]; dosage 320 g/ha): 100% | herbicidal activity ABUTH (Abutilon theophrasti [15]; dosage 320 g/ha): 100%
